The values below come from patent US12150975B2, “Therapeutic combinations to treat red blood cell disorders” (HARTIS-PHARMA SA, priority 2016, dated 2024).

Holding throughout (type): cell-based, human
Test [1] concerns RBC from healthy subjects. The experiment in a line: Reactive oxygen species (ROS) in RBC measured as Median Fluorescence Intensity by flow cytometry. Conditions: 20 min incubation. On the procedure: Blood was collected from four healthy control subjects using citrate as anticoagulant. After low speed centrifugation, the RBC pellet was washed with isotonic phosphate buffered saline (PBS) and re-suspended in PBS (hematocrite 20%). The RBC were prepared as described in Example 7 and the effect of HDL with or without lutein on the oxidative stress status of RBC was determined using RBC from healthy subjects incubated for 20 min in presence of 100 μM HDL isolated from human plasma (Sigma ref L-1567) in presence or absence of 1 μM or 10 μM lutein (Bertin pharma ref. 1001081). Reactive oxygen species (ROS) were measured as Median Fluorescence Intensity (MFI) by flow cytometry similarly to Amer et al., 2003, Eur J Haematol, 70(2):84-90.
In general terms: In flow cytometry, cells or beads pass a laser one at a time.

Another test relates to RBC from SCD subjects. The experiment in a line: RBC sensitivity to cholesterol depletion: hemolysis and membrane deformability by ektacytometry, SCD RBC. Conditions: 10 mM methyl-beta-cyclodextrine, 20 min at 37° C., RBC from 4 SCD subjects. On the procedure: (§1) Blood was collected from four healthy control subjects using citrate as anticoagulant. After low speed centrifugation, the RBC pellet was washed with isotonic phosphate buffered saline (PBS) and re-suspended in PBS (hematocrite 20%).
(§2) To confirm the difference in membrane cholesterol in RBC from SCD compared to healthy subjects, RBC's sensitivity to the cholesterol depleting agent methyl-beta-cyclodextrine was assessed. RBCs were incubated for 20 min at 37° C. in the presence of 2.5 mM or 10 mM methyl-beta-cyclodextrine (Sigma ref. C4555-5G) as described by Motayama et al., 2009, Biol. Pharm. Bull., 32(4) 700-705. RBC membrane deformability was assessed by ektacytometry (Mechatronics) as described by Renoux et al., 2016, Clin Hemorheol Microcirc., 62(2):173-9 at shear rate of 3 Pa and 30 Pa.

The next test deals with RBC from healthy control. In words: RBC sensitivity to cholesterol depletion: hemolysis and membrane deformability by ektacytometry, healthy RBC. Conditions: 10 mM methyl-beta-cyclodextrine, 20 min at 37° C. On the procedure: as §1, §2

`CC1=C[C@H](O)CC(C)(C)[C@H]1/C=C/C(C)=C/C=C/C(C)=C/C=C/C=C(C)/C=C/C=C(C)/C=C/C1=C(C)C[C@@H](O)CC1(C)C` [Lutein, lutein]: in test [1] (1 μM lutein), the “decrease in ROS” value is 9.2%. Also, in test [1] (Lutein 1 μM), the “% change in ROS MFI vs control” value was −9.2% and the “mean MFI (ROS)” value is 38.3. Also, in test [1] (Lutein 10 μM), the “% change in ROS MFI vs control” value was −36.4% and the “mean MFI (ROS)” value is 26.8.
As to methyl-beta-cyclodextrine, the “cholesterol depleting effect and resulting hemolysis” value in the test on RBC from SCD subjects is given as “resistant”. For the same compound, the hemolysis entry with RBC from healthy control was “marked hemolysis”. In the test with RBC from healthy control (ektacytometry at 3 Pa and 30 Pa), the RBC deformability result is given as “significant decrease”.
